The source of these data is paper PMC10133194 (Chemistry (Weinheim an der Bergstrasse, Germany), 2023).

Assay [1] deals with human colon carcinoma cells. As to conditions: panel of cell lines; cited from earlier work.
A further assay has as its system human CRC. To be noted: cited from earlier work.
For assay [2], the target named is T1, EPHA2 kinase domain (D596-G900) (Homo sapiens, UniProt P29317).
T1 sequence (P29317 596-900): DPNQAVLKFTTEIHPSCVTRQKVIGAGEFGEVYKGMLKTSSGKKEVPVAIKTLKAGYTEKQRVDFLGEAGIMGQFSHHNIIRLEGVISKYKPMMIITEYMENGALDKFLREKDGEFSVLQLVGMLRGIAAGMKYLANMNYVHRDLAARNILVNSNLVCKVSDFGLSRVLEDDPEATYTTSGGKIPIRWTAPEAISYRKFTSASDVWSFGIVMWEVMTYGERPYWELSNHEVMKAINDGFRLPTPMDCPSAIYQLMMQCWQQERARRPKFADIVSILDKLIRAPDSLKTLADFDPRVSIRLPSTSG
As to conditions: read-out: KD MST, reported previously ref 18; cited from earlier work.

Assay [3] concerns the target T1, EPHA2 kinase domain (D596-G900). Briefly: Microscale thermophoresis. The format is binding. As to conditions: read-out: KD MST, 25 °C, 5% DMSO, duplicates.

Like-named read-outs stand apart in the source and are kept apart here.

In the case of `Cc1ccc(C(=O)Nc2cccc(C(F)(F)F)c2)cc1Nc1nc(-c2cccnc2)nc2nn(C)cc12` [NVPiso], the “effect on proliferation of human colon carcinoma cells” value in assay [1] is reported as “reduce the proliferation”. The “effect on growth of human CRC in mice” value with human CRC is “inhibited the growth of human CRC in mice”. In addition, the dissociation constant (Kd) (commonly the concentration at which binding is half-saturated) in assay [2] was 73 nM. Take `Cc1ccc(C(=O)Nc2cccc(C(F)(F)F)c2)cc1Nc1nc(-c2cccnc2)nc2c1cnn2C` [NVP, NVP-BHG712]: in assay [1], the “effect on proliferation of human colon carcinoma cells” value was “reduce the proliferation”. As for `COc1cccc(NC(=O)c2ccc(C)c(Nc3nc(-c4cccnc4)nc4c3cnn4C)c2)c1` [Compound 14], the Kd in assay [3] stood at 2 nM. Still for that read-out and setting: the figure for `Cc1ccc(NC(=O)c2cccc(C(F)(F)F)c2)cc1Nc1nc(-c2cccnc2)nc2c1cnn2C` [Compound 7] is 10 nM.
